Values quoted from earlier work as cited in patent US20220233487A1, “PREPARATION FOR USE IN WEIGHT MANAGEMENT COMPRISING OMEGA-3 FATTY ACID SALTS AND BASIC AMINO ACIDS” (Evonik Operations GmbH, priority 2019, published 2022).

N=C(N)NCCC[C@H](N)C(=O)O [L-arginine]
pKa-values: pKCOOH: pKCOOH: 2.0
